Test [1] addresses Neuraminidase (Influenza A virus (strain A/Brevig Mission/1/1918 H1N1) (Influenza Avirus (strain A/South Carolina/1/1918 H1N1)), UniProt Q9IGQ6). Kind of test: Inhibition of Influenza A virus (A/Brevig Mission/1/1918(H1N1)) recombinant neuraminidase using 4-methylumbelliferyl-alpha-D-N-acetylneuraminic acid sodium salt hydrate solution substrate by ELISA. A general note: ELISA stands for enzyme-linked immunosorbent assay.

Test [2] has the same target. As to the kind of experiment: Noncompetitive inhibition of Influenza A virus (A/Brevig Mission/1/1918(H1N1)) recombinant neuraminidase using 4-methylumbelliferyl-alpha-D-N-acetylneuraminic acid sodium salt hydrate solution substrate by double reciprocal Lineweaver-Burk plot and dixon plot analysis.

The values below come from ChEMBL document CHEMBL1821618, “Characteristic of alkylated chalcones from Angelica keiskei on influenza virus neuraminidase inhibition” (Bioorg Med Chem Lett, 2011).

Chain of Neuraminidase (Influenza A virus (strain A/Brevig Mission/1/1918 H1N1) (Influenza Avirus (strain A/South Carolina/1/1918 H1N1)), UniProt Q9IGQ6) (Q9IGQ6 whole entry): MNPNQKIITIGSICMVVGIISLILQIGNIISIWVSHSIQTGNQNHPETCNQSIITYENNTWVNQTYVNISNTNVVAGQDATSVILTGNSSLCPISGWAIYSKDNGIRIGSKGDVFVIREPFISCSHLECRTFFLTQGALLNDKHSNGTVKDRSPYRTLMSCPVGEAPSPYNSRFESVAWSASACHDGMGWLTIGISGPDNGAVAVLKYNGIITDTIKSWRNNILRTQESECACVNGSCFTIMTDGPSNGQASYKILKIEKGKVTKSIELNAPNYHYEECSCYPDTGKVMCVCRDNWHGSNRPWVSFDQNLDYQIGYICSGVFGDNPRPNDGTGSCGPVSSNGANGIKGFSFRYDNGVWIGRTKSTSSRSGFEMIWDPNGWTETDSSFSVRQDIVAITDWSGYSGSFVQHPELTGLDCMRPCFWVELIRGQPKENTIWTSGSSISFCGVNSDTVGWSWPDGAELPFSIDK

By IC50 is commonly meant the concentration that inhibits the measured activity by half. As a reminder, the Ki is a dissociation constant, usually derived from enzyme kinetics or from competition with a known ligand. In the case of `COc1ccc(C(=O)/C=C/c2ccc(O)cc2)c(O)c1CC=C(C)C`, the IC50 in test [1] is 42.1 µM. Moreover, the Ki in test [2] is 50.2 µM.
Take `COC(CC/C(C)=C/Cc1c(O)ccc(C(=O)/C=C/c2ccc(O)cc2)c1O)OC` [XANTHOKEISTAL A]: the IC50 in test [1] is 30.9 µM. Besides, the Ki in test [2] turned out to be 33.5 µM.
Regarding `C=C(C)C(O)CC/C(C)=C/Cc1c(O)ccc(C(=O)/C=C/c2ccc(O)cc2)c1O` (configuration not stated) [XANTHOANGELOL B], the IC50 in test [1] was 22.5 µM. Also, the Ki in test [2] was 20.7 µM.
On the same counts, the results for `COc1ccc(C(=O)/C=C/c2ccc(O)cc2)c(O)c1C/C=C(\C)CCC=C(C)C` [XANTHOANGELOL F] are 85.9 µM and 123 µM.
On the same counts, the results for `C=C(C)C(O)CC/C(C)=C/Cc1c(OC)ccc(C(=O)/C=C/c2ccc(O)cc2)c1O` (configuration not stated) [XANTHOANGELOL G] are 24.2 µM and 20 µM.
In the case of `C=C(C)C(O)Cc1c(OC)ccc(C(=O)/C=C/c2ccc(O)cc2)c1O` (configuration not stated) [XANTHOANGELOL D], the IC50 in test [1] worked out at 12.3 µM. Moreover, the Ki in test [2] was 14 µM.
